{"source": "patent US20050245902A1", "about": "“Substance delivery device” (priority 2002, published 2005)", "origin": "cited, not measured here", "key": {"[1]": {"conditions": "in vivo"}}}
{"smiles": "CC(=O)[C@H]1CC[C@H]2[C@@H]3CCC4=CC(=O)CC[C@]4(C)[C@H]3CC[C@]12C", "note": "[progesterone]", "values": [{"measurement": "half life", "setting": "[1]", "result": 20, "unit": "min"}, {"measurement": "water solubility", "result": "poorly water-soluble"}]}
